For 5 compounds, IC50 and melting point results are on record in US7220750B2, “Bicyclic heterocycles, pharmaceutical compositions containing these compounds, their use and processes for preparing them” (Boehringer Ingelheim Pharma GmbH & Co. KG, priority 1999, dated 2007).

What is called IC50 is the midpoint of a concentration-inhibition curve. Low readings indicate inhibition by little substance, high ones a need for much substance.

The first series deals with T1, human EGF-R (Homo sapiens, UniProt P00533).
T1 construct: expressed in transfected cells; host or cells: F/L-HERc cells (murine IL-3-dependent FDC-P1 line transduced with LXSN retroviral vector carrying human EGF-R cDNA; packaging line GP+E86)
T1 sequence (P00533 25-1210): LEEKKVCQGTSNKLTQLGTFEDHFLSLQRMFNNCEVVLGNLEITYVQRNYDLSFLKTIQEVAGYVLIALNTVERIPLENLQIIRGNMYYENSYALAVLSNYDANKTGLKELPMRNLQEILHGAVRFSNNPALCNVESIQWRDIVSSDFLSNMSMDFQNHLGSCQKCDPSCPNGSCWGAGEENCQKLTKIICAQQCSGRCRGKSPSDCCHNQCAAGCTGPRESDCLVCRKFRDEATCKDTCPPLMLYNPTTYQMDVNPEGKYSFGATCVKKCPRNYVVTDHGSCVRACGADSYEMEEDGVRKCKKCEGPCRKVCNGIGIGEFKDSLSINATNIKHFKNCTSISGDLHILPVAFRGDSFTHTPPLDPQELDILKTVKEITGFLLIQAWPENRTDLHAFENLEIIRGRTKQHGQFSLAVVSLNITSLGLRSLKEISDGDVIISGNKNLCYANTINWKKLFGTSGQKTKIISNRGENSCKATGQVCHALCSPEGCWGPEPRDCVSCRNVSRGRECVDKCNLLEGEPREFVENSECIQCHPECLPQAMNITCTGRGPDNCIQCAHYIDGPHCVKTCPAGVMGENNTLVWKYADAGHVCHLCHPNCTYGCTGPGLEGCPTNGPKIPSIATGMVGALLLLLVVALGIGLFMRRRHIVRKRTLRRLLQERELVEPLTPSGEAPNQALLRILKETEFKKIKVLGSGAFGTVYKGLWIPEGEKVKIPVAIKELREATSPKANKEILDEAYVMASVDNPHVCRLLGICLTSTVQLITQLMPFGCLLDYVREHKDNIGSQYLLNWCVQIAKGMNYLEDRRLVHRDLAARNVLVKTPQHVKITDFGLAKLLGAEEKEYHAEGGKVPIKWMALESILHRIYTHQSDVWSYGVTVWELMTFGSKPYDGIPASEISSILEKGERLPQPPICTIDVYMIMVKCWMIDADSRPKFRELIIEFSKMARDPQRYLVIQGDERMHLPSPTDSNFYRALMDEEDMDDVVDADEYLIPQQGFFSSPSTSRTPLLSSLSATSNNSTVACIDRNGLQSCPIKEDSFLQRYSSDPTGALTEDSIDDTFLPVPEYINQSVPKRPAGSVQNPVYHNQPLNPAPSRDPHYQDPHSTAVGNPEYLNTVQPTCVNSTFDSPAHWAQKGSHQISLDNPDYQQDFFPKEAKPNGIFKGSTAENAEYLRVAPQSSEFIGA
As to the kind of experiment: Inhibition of EGF-dependent proliferation of F/L-HERc cells (Cell Titer 96 assay). The series is classed as cell-based. As to conditions: F/L-HERc cells (murine IL-3-dependent line expressing human EGF-R), stimulated with EGF 20 ng/ml, 48 hours. An excerpt:
A cell line of murine origin dependent on interleukin-3-(IL-3) which was genetically modified to express functional human EGF-R was used here. The proliferation of these cells known as F/L-HERc can therefore be stimulated either by murine IL-3 or by EGF (cf. T. von Rüden et al., EMBO J. 7, 2749–2756 (1988) and J. H Pierce et al., Science 239, 628–631 (1988)).
The starting material used for the F/L-HERc cells was the cell line FDC-P1, the production of which has been described by T. M. Dexter et al., J. Exp. Med. 152, 1036–1047 (1980). Alternatively, however, other growth-factor-dependent cells may also be used (cf., for example, J. H. Pierce et al., Science 239, 628–631 (1988); H. Shibuya et al., Cell 70, 57–67 (1992); and W. S. Alexander et al., EMBO J. 10, 3683–3691 (1991)). For expressing the human EGF-R cDNA (cf. Ullrich, A. et al. in Nature 309, 418–425 (1984)) recombinant retroviruses were used as described by T. von Rüden et al., EMBO J. 7, 2749–2756 (1988), except that the retroviral vector LXSN (cf. A. D. Miller et al., BioTechniques 7, 980–990 (1989)) was used for the expression of the EGF-R cDNA and the line GP+E86 (cf. D. Markowitz et al., J. Virol. 62, 1120–1124 (1988)) was used as the packaging cell.
F/L-HERc cells were cultivated in RPMI/1640 medium (BioWhittaker), supplemented with 10% fetal calf serum (FCS, Boehringer Mannheim), 2 mM glutamine (BioWhittaker), standard antibiotics and 20 ng/ml of human EGF (Promega), at 37° C. and 5% CO2. In order to investigate the inhibitory activity of the compounds according to the invention, 1.5×10^4 cells per well were cultivated in triplicate in 96-well dishes in the above medium (200 μl), the cell proliferation being stimulated with either EGF (20 ng/ml) or murine IL-3. The IL-3 used was obtained from culture supernatants of the cell line X63/0 mIL-3 (cf. H. Karasuyama et al., Eur. J. Immunol. 18, 97–104 (1988)). The compounds according to the invention were dissolved in 100% dimethylsulfoxide (DMSO) and added to the cultures in various dilutions, the maximum DMSO concentration being 1%. The cultures were incubated for 48 hours at 37° C.
In order to determine the inhibitory activity of the compounds according to the invention the relative cell number was measured in O.D. units using the Cell Titer 96™ Aqueous Non-Radioactive Cell Proliferation Assay (Promega). The relative cell number was calculated as a percentage of the control (F/LHERc cells without inhibitor) and the concentration of active substance which inhibits the proliferation of the cells by 50% (IC50) was derived therefrom.
`CCN(CC)CC=CC(=O)Nc1cc2c(Nc3ccc(F)c(Cl)c3)ncnc2cc1OCC1CC1` [Example 3, 4-[(3-Chloro-4-fluorophenyl)amino]-6-{[4-(N,N-diethylamino)-1-oxo-2-buten-1-yl]amino}-7-cyclopropylmethoxyquinazoline]: it took 5000 pM to reach half-maximal inhibition (IC50).

The compound `C=CC(=O)Nc1cc2c(Nc3cccc(Br)c3)ncnc2cc1OCCCC1CCN(C)CC1` [Example 1, 4-[(3-Bromophenyl)amino]-7-[3-(1-methylpiperidin-4-yl)propyloxy]-6-[(vinylcarbonyl)amino]quinazoline] gave an IC50 of less than 350 pM. Same read-out and setting: the result for `C=CC(=O)Nc1cc2c(Nc3ccc(F)c(Cl)c3)ncnc2cc1OCCCC1CCN(C)CC1` [1(7), 4-[(3-Chloro-4-fluorophenyl)amino]-7-[3-(1-methylpiperidin-4-yl)propyloxy]-6-[(vinylcarbonyl)amino]quinazoline] reads less than 500 pM; that for `CC#CC(=O)Nc1cc2c(Nc3cccc(Br)c3)ncnc2cc1OCCCC1CCN(C)CC1` [2(3), 4-[(3-Bromophenyl)amino]-7-[3-(1-methylpiperidin-4-yl)propyloxy]-6-[(1-oxo-2-butyn-1-yl)amino]quinazoline], 350 pM. Still for that read-out and setting: the figure for `O=C(C=CCN1CCOCC1)Nc1cc2c(Nc3ccc(F)c(Cl)c3)ncnc2cc1OCC1CC1` [3(1), 4-[(3-Chloro-4-fluorophenyl)amino]-6-{[4-(morpholin-4-yl)-1-oxo-2-buten-1-yl]amino}-7-cyclopropylmethoxyquinazoline] is 200 pM.

Test system in a further series: not given
Assay: not given
Settings: not given
Regarding `CCN(CC)CC=CC(=O)Nc1cc2c(Nc3ccc(F)c(Cl)c3)ncnc2cc1OCC1CC1` [Example 3, 4-[(3-Chloro-4-fluorophenyl)amino]-6-{[4-(N,N-diethylamino)-1-oxo-2-buten-1-yl]amino}-7-cyclopropylmethoxyquinazoline], the melting point is ~ 145 °C (dec.).
